Measured values taken from patent US9408852B2, “Method of lowering serum uric acid levels with (S)-tofisopam” (PHARMOS CORPORATION, priority 2011, dated 2016).
Several values for one entry are separate records, joined by “and”; a condition that tells them apart may be missing. Equal entries are not always repeated.

Key:
serum uric acid [1] = assay: Serum uric acid after single oral doses in male healthy volunteers (Example 2); format: in vivo, human; conditions: for Mean CFB (change from baseline) in uric acid levels: male healthy volunteers, n = 6
Description: Male healthy volunteers received 50-400 mg enantiomerically-pure (S)-tofisopam by oral administration. Mean serum uric acid values fell by 23% to 30% within 4 hours after receiving single doses (Table 1).

clearance creatinine = assay: Creatinine clearance in patients with hyperuricemia and gout (Example 9); format: in vivo, human; conditions: 50 mg qd Day 1 and 7, tid Days 2 to 6
Description: (§1) The study lasted 7 days, and patients were treated with placebo or 50 mg of enantiomerically-pure (S)-tofisopam once a day (qd) on Day 1 and Day 7 of the study, and with placebo or 50 mg of enantiomerically-pure (S)-tofisopam three times a day (tid) for Days 2 to 6 of the study. […] In Table 8, days indicated with a minus sign (e.g. D-1) indicate the time point corresponding to that number of days before treatment was initiated. For example, D-14 is the time point fourteen days before treatment was initiated.

[2] = system: urinary creatinine excretion; assay: 24 h urinary creatinine excretion in patients with hyperuricemia and gout (Example 9); format: in vivo, human; conditions: 50 mg qd Day 1 and 7, tid Days 2 to 6
Description: as §1

xanthine oxidase = xanthine oxidase (Homo sapiens, UniProt P47989); assay: Xanthine oxidase inhibition; format: biochemical; conditions: unlike allopurinol
serum uric acid [3] = assay: Serum uric acid in male and female patients with hyperuricemia and gout, 7 days (Example 7); format: in vivo, human
Description: as §1, with “6,” for “8,”

[4] = individual patient (P#), [D 1 to D 2] from [D −2 to D −1]
[5] = individual patient (P#), [D 6 to D 7] from [D 1 to D 2]
[6] = mean (M) of patients, [D 1 to D 2] from [D −2 to D −1]
[7] = mean (M) of patients, [D 6 to D 7] from [D 1 to D 2]
[8] = 50 mg qd Day 1 and Day 7, tid Days 2 to 6, Day 1 6 h (Day 1 0 h = 0.0), hyperuricemia and gout
[9] = 50 mg qd Day 1 and Day 7, tid Days 2 to 6, Day 1 to Day 2: Day 1 0 h + Day 2, hyperuricemia and gout
[10] = 50 mg qd Day 1 and Day 7, tid Days 2 to 6, Day 2 (Day 1 0 h = 0.0), hyperuricemia and gout
[11] = 50 mg qd Day 1 and Day 7, tid Days 2 to 6, Day 3 (Day 1 0 h = 0.0), hyperuricemia and gout
[12] = 50 mg qd Day 1 and Day 7, tid Days 2 to 6, Day 4 (Day 1 0 h = 0.0), hyperuricemia and gout
[13] = 50 mg qd Day 1 and Day 7, tid Days 2 to 6, Day 5 (Day 1 0 h = 0.0), hyperuricemia and gout
[14] = 50 mg qd Day 1 and Day 7, tid Days 2 to 6, Day 6 (Day 1 0 h = 0.0), hyperuricemia and gout
[15] = 50 mg qd Day 1 and Day 7, tid Days 2 to 6, Day 6 to Day 7: Day 6 + Day 7, hyperuricemia and gout
[16] = 50 mg qd Day 1 and Day 7, tid Days 2 to 6, Day 7 (Day 1 0 h = 0.0), hyperuricemia and gout
[17] = 50 mg qd Day 1 and Day 7, tid Days 2 to 6, Day 8 (after treatment stopped), hyperuricemia and gout
[18] = 50 mg qd Day 1 and Day 7, tid Days 2 to 6, Day 15 (after treatment stopped), hyperuricemia and gout

Chain of xanthine oxidase (P47989 whole entry, species assumed): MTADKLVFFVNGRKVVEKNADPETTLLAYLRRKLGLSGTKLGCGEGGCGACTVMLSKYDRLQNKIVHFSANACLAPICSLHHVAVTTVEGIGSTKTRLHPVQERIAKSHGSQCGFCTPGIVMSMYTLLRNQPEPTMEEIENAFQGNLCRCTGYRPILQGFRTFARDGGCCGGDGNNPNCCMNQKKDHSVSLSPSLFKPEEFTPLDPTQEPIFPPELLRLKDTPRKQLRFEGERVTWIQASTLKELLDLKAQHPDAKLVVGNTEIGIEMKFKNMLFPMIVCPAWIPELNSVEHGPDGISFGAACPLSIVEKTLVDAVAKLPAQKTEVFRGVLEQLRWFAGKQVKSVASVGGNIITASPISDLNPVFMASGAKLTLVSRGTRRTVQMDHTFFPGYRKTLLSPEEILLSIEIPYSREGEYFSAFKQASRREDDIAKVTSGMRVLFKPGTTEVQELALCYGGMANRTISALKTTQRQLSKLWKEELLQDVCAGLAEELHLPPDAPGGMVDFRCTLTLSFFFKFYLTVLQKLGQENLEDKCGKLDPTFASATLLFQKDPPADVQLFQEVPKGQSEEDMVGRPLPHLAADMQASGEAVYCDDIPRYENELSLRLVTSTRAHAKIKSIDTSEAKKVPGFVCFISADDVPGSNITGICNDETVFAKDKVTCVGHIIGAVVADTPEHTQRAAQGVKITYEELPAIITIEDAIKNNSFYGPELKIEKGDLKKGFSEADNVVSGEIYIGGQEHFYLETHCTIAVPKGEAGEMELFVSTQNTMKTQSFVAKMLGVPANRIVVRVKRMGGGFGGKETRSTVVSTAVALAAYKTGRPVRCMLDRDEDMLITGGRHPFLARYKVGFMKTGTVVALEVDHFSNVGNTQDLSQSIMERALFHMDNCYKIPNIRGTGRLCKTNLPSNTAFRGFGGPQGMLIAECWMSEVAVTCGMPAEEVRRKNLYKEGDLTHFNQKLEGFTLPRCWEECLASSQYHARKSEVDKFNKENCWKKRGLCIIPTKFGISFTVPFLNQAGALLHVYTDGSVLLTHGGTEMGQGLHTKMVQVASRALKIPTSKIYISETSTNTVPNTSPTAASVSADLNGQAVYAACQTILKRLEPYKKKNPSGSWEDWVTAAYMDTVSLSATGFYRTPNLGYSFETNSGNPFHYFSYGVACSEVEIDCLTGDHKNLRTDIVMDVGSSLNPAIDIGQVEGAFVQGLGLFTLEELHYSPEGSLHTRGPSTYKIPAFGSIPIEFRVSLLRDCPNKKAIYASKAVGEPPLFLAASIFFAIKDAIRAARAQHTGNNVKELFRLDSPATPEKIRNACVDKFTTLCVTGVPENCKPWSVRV

With CC[C@@H]1C(C)=NN=C(c2ccc(OC)c(OC)c2)c2cc(OC)c(OC)cc21 [(S)-tofisopam] the “Mean CFB (change from baseline) in uric acid levels” value (“Mean CFB (change from baseline)” below) (serum uric acid [1]; single oral dose 50 mg, 48 hours after dose) was −24%, the “Mean CFB (change from baseline)” value (serum uric acid [1]; single oral dose 100 mg, 4 hours after dose) was −25% and the “Mean CFB (change from baseline)” value (serum uric acid [1]; single oral dose 100 mg, 24 hours after dose) was −28%. The “Mean CFB (change from baseline)” value (serum uric acid [1]; single oral dose 100 mg, 48 hours after dose) was −29%, the “Mean CFB (change from baseline)” value (serum uric acid [1]; single oral dose 200 mg, 4 hours after dose) was −29% and the “Mean CFB (change from baseline)” value (serum uric acid [1]; single oral dose 200 mg, 24 hours after dose) was −36%. The “Mean CFB (change from baseline)” value (serum uric acid [1]; single oral dose 200 mg, 48 hours after dose) was −37%, the “Mean CFB (change from baseline)” value (serum uric acid [1]; single oral dose 300 mg, 4 hours after dose) was −30% and the “Mean CFB (change from baseline)” value (serum uric acid [1]; single oral dose 300 mg, 24 hours after dose) was −48%. The “Mean CFB (change from baseline)” value (serum uric acid [1]; single oral dose 300 mg, 48 hours after dose) was −49%, the “Mean CFB (change from baseline)” value (serum uric acid [1]; single oral dose 400 mg, 4 hours after dose) was −27% and the “Mean CFB (change from baseline)” value (serum uric acid [1]; single oral dose 400 mg, 24 hours after dose) was −48%. For the same molecule, the “Mean CFB (change from baseline)” value (serum uric acid [1]; single oral dose 400 mg, 48 hours after dose) was −45%, the “Time course of uric acid levels after single dose” value (serum uric acid [1]; single oral doses 50-400 mg, 4, 24 and 48 hours) was “decreased further up to the 24-hour timepoint, with no further decrease at 48 hours” and the “Dose relation of decreases in uric acid levels” value (serum uric acid [1]; single oral doses 50-400 mg, slightly lower decreases at 400 mg) was “dose-related up to the 300 mg dose”. The “Percent change in CLc (clearance creatinine)” value (“Percent change in CLc” for short) (clearance creatinine; [4]) was 35.1% and 2.5% and −24.4% and −14.2% and 16.2% and −22.4% and 0.7% and −4.1% and −2.7% and −1.3% and −11.8% and 11.2%, the “Percent change in CLc” value (clearance creatinine; [5]) was −12.7% and 15.2% and 21.1% and 14.0% and 8.9% and 0.0% (2×) and −3.9% and 14.3% and 0.7% and −23.7% and the “Percent change in CLc” value (clearance creatinine; [6]) was −1.3%. The “Percent change in CLc” value (clearance creatinine; [7]) was 3.1%, the “Percent change in Uc (mg/24 h), amount of creatinine excreted into the urine over 24 hours” value (“Percent change in Uc (mg/24 h), amount” below) [2, 4] was 47.6% and 5.5% and −22.9% and −16.8% and 11.5% and −8.7% and −5.2% and −8.1% and −15.0% and −3.5% and −11.0% and 3.8% and the “Percent change in Uc (mg/dL), concentration of creatinine in 24 hour urine” value (“Percent change in Uc (mg/dL)” for short) [2, 4] was 71.2% and −14.5% and 14.4% and −14.1% and −44.2% and −5.6% and 56.8% and −21.0% and −33.0% and 5.4% and −35.5% and 25.6%. The “Percent change in Uc (mg/24 h), amount” value [2, 5] was −14.5% and 19.2% and 15.4% and 10.8% and 7.9% and 5.9% and 5.6% and 21.6% and 5.8% and −4.8% and −10.8%, the “Percent change in Uc (mg/dL)” value [2, 5] was −31.0% and 0.2% and −33.7% and −21.3% and −15.2% and −32.1% and −38.3% and −24.0% and −11.2% and −6.0% and −30.1% and the “Percent change in Uc (mg/24 h), amount” value [2, 6] was −1.9%. The “Percent change in Uc (mg/dL)” value [2, 6] was 0.5%, the “Percent change in Uc (mg/24 h), amount” value [2, 7] was 5.6% and the “Percent change in Uc (mg/dL)” value [2, 7] was −22.1%. The “Inhibition of xanthine oxidase” value (xanthine oxidase) was “does not inhibit”, the “Percent change in serum uric acid, individual patients (P# 1-13)” value (from here on “Percent change … (P# 1-13)”) (serum uric acid [3]; [8]) was −12.0% and 4.1% and −4.3% and −8.0% and −12.5% and −8.1% and −13.9% and −8.2% and −5.6% and the “Percent change in serum uric acid, mean (M) of 13 patients” value (shortened to “Percent change in serum uric acid, mean”) (serum uric acid [3]; [8]) was −6.9%. For the same molecule, the “Percent change … (P# 1-13)” value (serum uric acid [3]; [9]) was −10.7% and −9.6% and −4.3% and −7.3% and −8.9% and −8.1% and −12.0% and −2.6% and −3.5%, the “Percent change in serum uric acid, mean” value (serum uric acid [3]; [9]) was −6.8% and the “Percent change … (P# 1-13)” value (serum uric acid [3]; [10]) was −21.3% and −19.2% and −8.6% and −14.7% and −17.7% and −16.2% and −24.1% and −5.2% and −7.0%. The “Percent change in serum uric acid, mean” value (serum uric acid [3]; [10]) was −13.6%, the “Percent change … (P# 1-13)” value (serum uric acid [3]; [11]) was −32.0% and −43.8% and −14.3% and −30.7% and −36.5% and −18.9% and −45.6% and −12.4% and −16.9% and −9.6% and the “Percent change in serum uric acid, mean” value (serum uric acid [3]; [11]) was −26.6%. For the same molecule, the “Percent change … (P# 1-13)” value (serum uric acid [3]; [12]) was −38.7% and −54.8% and −27.1% and −42.7% and −43.8% and −37.8% and −54.4% and −59.8% and −35.2%, the “Percent change in serum uric acid, mean” value (serum uric acid [3]; [12]) was −41.8% and the “Percent change … (P# 1-13)” value (serum uric acid [3]; [13]) was −48.0% and −52.1% and −40.0% and −36.0% and −45.8% and −33.8% and −50.6% and −25.8% and −39.4%. For the same molecule, the “Percent change in serum uric acid, mean” value (serum uric acid [3]; [13]) was −41.1%, the “Percent change … (P# 1-13)” value (serum uric acid [3]; [14]) was −40.0% and −53.4% and −31.4% and −64.0% and −45.8% and −31.1% and −50.6% and −28.9% and −39.4% and the “Percent change in serum uric acid, mean” value (serum uric acid [3]; [14]) was −43.1%. For the same molecule, the “Percent change … (P# 1-13)” value (serum uric acid [3]; [15]) was −44.0% and −56.2% and −36.4% and −56.0% and −46.9% and −31.1% and −53.2% and −34.5% and −40.8%, the “Percent change in serum uric acid, mean” value (serum uric acid [3]; [15]) was −45.1% and the “Percent change … (P# 1-13)” value (serum uric acid [3]; [16]) was −48.0% (2×) and −58.9% and −41.4% and −47.9% and −31.1% and −55.7% and −40.2% and −42.3%. The “Percent change in serum uric acid, mean” value (serum uric acid [3]; [16]) was −47.1%, the “Percent change … (P# 1-13)” value (serum uric acid [3]; [17]) was −36.0% (2×) and −46.6% and −32.9% and −41.7% and −24.3% and −45.6% and −30.9% and −26.8% and the “Percent change in serum uric acid, mean” value (serum uric acid [3]; [17]) was −35.5%. For the same molecule, the “Percent change … (P# 1-13)” value (serum uric acid [3]; [18]) was 36.0% and 17.8% and 25.7% and −13.3% and 1.0% and 39.2% and 30.4% and 10.3% and 26.8%, the “Percent change in serum uric acid, mean” value (serum uric acid [3]; [18]) was 18.9% and the “Effect on serum uric acid levels” value (serum uric acid [3]; 50 mg qd Day 1 and Day 7, tid Days 2 to 6, male and female patients with hyperuricemia and gout) was “decreases”. The “Serum uric acid levels once treatment was stopped after 7 days” value (serum uric acid [3]; after 7 days of 50 mg treatment, hyperuricemia and gout) was “began to increase again”.
